Key:
Experiment in all cases: relative viability (nuclei count vs DMSO), 5 days (fraction); higher = more cells survive
BI-D1870 + Olaparib = compound: CC(C)CCN1c2nc(Nc3cc(F)c(O)c(F)c3)ncc2N(C)C(=O)C1C [BI-D1870] + O=C(c1cc(Cc2n[nH]c(=O)c3ccccc23)ccc1F)N1CCN(C(=O)C2CC2)CC1 [Olaparib] (partner 8 µM)
Method in brief: (§1)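 Lung cancer cell lines were pin-tool dosed in 1536-well plates on the day after seeding, with either a lone drug or a fixed anchor-drug dose plus five library-drug doses (not always all listed) in √10 steps. Nuclei were counted on 4× images after 5 days. Relative viability is the ratio of treated-well to vehicle-well nuclei counts, with each value a median of duplicate plates.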

Zebularine + Linsitinib = compound: O=c1ncccn1[C@@H]1O[C@H](CO)[C@@H](O)[C@H]1O [Zebularine] + C[C@]1(O)C[C@@H](c2nc(-c3ccc4ccc(-c5ccccc5)nc4c3)c3c(N)nccn32)C1 [Linsitinib] (partner 1 µM)
Method in brief: as §1

Zebularine + Bortezomib = compound: O=c1ncccn1[C@@H]1O[C@H](CO)[C@@H](O)[C@H]1O [Zebularine] + CC(C)C[C@H](NC(=O)[C@H](Cc1ccccc1)NC(=O)c1cnccn1)B(O)O [Bortezomib] (partner 0.002 µM)
Method in brief: as §1

BI-D1870 + Alpelisib = compound: CC(C)CCN1c2nc(Nc3cc(F)c(O)c(F)c3)ncc2N(C)C(=O)C1C [BI-D1870] + Cc1nc(NC(=O)N2CCC[C@H]2C(N)=O)sc1-c1ccnc(C(C)(C)C(F)(F)F)c1 [Alpelisib] (partner 2 µM)
Method in brief: as §1

Cell Line | relative viability (BI-D1870 + Olaparib; first compound 0.04 µM) | relative viability (BI-D1870 + Olaparib; first compound 0.1265 µM) | relative viability (BI-D1870 + Olaparib; first compound 0.4 µM) | relative viability (BI-D1870 + Olaparib; first compound 1.265 µM) | relative viability (BI-D1870 + Olaparib; first compound 4 µM) | relative viability (Zebularine + Linsitinib; first compound 1 µM) | relative viability (Zebularine + Linsitinib; first compound 3.162 µM) | relative viability (Zebularine + Linsitinib; first compound 10 µM) | relative viability (Zebularine + Linsitinib; first compound 31.62 µM) | relative viability (Zebularine + Linsitinib; first compound 100 µM) | relative viability (Zebularine + Bortezomib; first compound 1 µM) | relative viability (Zebularine + Bortezomib; first compound 3.162 µM) | relative viability (Zebularine + Bortezomib; first compound 10 µM) | relative viability (Zebularine + Bortezomib; first compound 31.62 µM) | relative viability (Zebularine + Bortezomib; first compound 100 µM) | relative viability (BI-D1870 + Alpelisib; first compound 0.04 µM) | relative viability (BI-D1870 + Alpelisib; first compound 0.1265 µM) | relative viability (BI-D1870 + Alpelisib; first compound 0.4 µM) | relative viability (BI-D1870 + Alpelisib; first compound 1.265 µM) | relative viability (BI-D1870 + Alpelisib; first compound 4 µM)
NCI-H2405 | 0.874 | 0.826 | 0.89 | 0.802 | 0.814 | 0.891 | 0.918 | 0.873 | 0.77 | 0.643 | 1.03 | 0.801 | 0.778 | 0.969 | 0.565 | 0.976 | 0.766 | 0.769 | 0.789 | 0.705
EPLC-272H | 0.692 | 0.804 | 0.692 | 0.381 | 0.204 | 1.62 | – | – | 1.05 | 0.746 | 1 | – | – | 1.07 | 0.836 | 0.967 | 0.878 | 0.836 | 1.01 | 0.953
EBC-1 | 0.738 | 0.581 | 0.574 | 0.337 | 0.183 | 1.1 | 0.975 | 0.979 | 1.21 | 0.854 | 0.528 | 0.547 | 0.508 | 0.572 | 0.623 | 0.925 | 0.625 | 0.786 | 0.475 | 0.297
NCI-H1915 | 0.249 | 0.24 | 0.267 | 0.206 | 0.146 | 1.09 | 1.08 | 1.07 | 1.09 | 0.94 | 1.11 | 0.913 | 0.433 | 1.09 | 0.97 | 1.03 | 1.07 | 1.03 | 1.06 | 1
NCI-H596 | 0.73 | 0.743 | 0.625 | 0.671 | 0.63 | 1.03 | 1.04 | 0.832 | 1.06 | 1.01 | 1.06 | 1.1 | 0.725 | 1.23 | 0.986 | 0.456 | 0.487 | 0.43 | 0.511 | 0.512
NCI-H322M | 0.736 | 0.75 | 0.713 | 0.735 | 0.624 | 0.945 | 0.902 | 0.721 | 0.849 | 0.685 | 1.19 | 1.29 | 1.06 | 1.17 | 0.824 | 0.887 | 0.79 | 0.741 | 0.891 | 0.765
NCI-H1299 | 1.04 | 1 | 0.996 | 0.892 | 0.545 | 1.09 | 0.993 | 0.984 | 1.07 | 0.535 | 1.01 | 1.06 | 0.969 | 1.08 | 0.747 | 1.05 | 1.04 | 1.07 | 1.15 | 0.993
NCI-H2228 | 0.678 | 0.429 | 0.511 | 0.717 | 0.314 | 0.616 | 0.666 | 0.514 | 0.509 | 0.409 | 1.17 | 0.924 | 0.46 | 0.837 | 0.354 | 0.669 | 0.568 | 0.876 | 0.602 | 0.35
IA-LM | 0.812 | 0.739 | 0.913 | 0.851 | 0.506 | 0.723 | 0.794 | – | 0.878 | 0.503 | 0.63 | 0.892 | 0.617 | 1.03 | 0.672 | 0.687 | 0.673 | 0.759 | 0.765 | 0.446
NCI-H647 | 0.747 | 0.447 | 0.579 | 0.496 | 0.359 | 1.42 | 1.06 | 0.426 | 0.172 | 0.17 | 1.27 | 0.749 | 0.181 | 0.175 | 0.204 | 1.1 | 0.985 | 1.16 | 1.07 | 0.896
NCI-H2085 | 0.813 | 0.768 | 0.737 | 0.702 | 0.429 | 1.18 | 0.878 | 0.76 | 0.887 | 0.428 | 1.12 | 0.971 | 0.828 | 1.06 | 0.683 | 0.986 | 0.886 | 0.92 | 0.938 | 0.74
SW 1573 | 0.602 | 0.415 | 0.432 | 0.419 | 0.191 | 0.762 | 0.851 | 0.533 | 0.779 | 0.406 | 1.13 | 0.896 | 0.78 | 1.07 | 0.584 | 0.934 | 0.64 | 0.723 | 0.794 | 0.661
NCI-H727 | 0.704 | 0.563 | 0.675 | 0.649 | 0.779 | 0.3 | 0.3 | 0.286 | 0.365 | 0.203 | 0.901 | 0.816 | 0.737 | 0.943 | 0.762 | 0.591 | 0.448 | 0.526 | 0.63 | 0.445
NCI-H441 | 0.682 | 0.549 | 0.569 | 0.537 | 0.492 | 0.581 | 0.548 | 0.291 | 0.249 | 0.234 | 0.355 | 0.278 | 0.352 | 0.235 | 0.245 | 0.915 | 0.675 | 0.955 | 0.572 | 0.434
LOU-NH91 | 1.06 | 0.892 | 0.903 | 0.911 | 0.669 | 0.893 | 0.963 | 0.868 | 0.876 | 0.629 | 0.485 | 0.464 | 0.51 | 0.441 | 0.492 | 0.811 | 0.796 | 0.753 | 0.735 | 0.605
NCI-H3122 | 0.576 | 0.562 | 0.566 | 0.631 | 0.588 | 1.13 | 1.09 | 0.848 | 1.06 | 1.04 | 1.04 | 0.991 | 1 | 1.05 | 1.08 | 0.721 | 0.643 | 0.724 | 0.852 | 0.749
